For data set [1] the following is noted: cited from earlier work.
Data set [2] is described as follows: Open-label sequential drug-drug interaction study: plasma pharmacokinetics of deutetrabenazine and its metabolites without and with steady-state paroxetine. The settings on record: for % Ratio of LS means (90% CI) (day 11)/(day 1), AUC0−t / % Ratio of LS means (90% CI) (day 11)/(day 1), AUC0−∞ / % Ratio of LS means (90% CI) (day 11)/(day 1), Cmax: deutetrabenazine + paroxetine vs deutetrabenazine alone. From the text: This was an open-label sequential drug-drug interaction study in 24 healthy adult subjects who were CYP2D6 extensive metabolizers (EM) or CYP2D6 intermediate metabolizers (IM); Supplemental Table S1 provides the genotypes and phenotypes of the subjects.
Subjects checked into the clinic on day 1 and were confined through day 14. […] Those who met inclusion/exclusion criteria received a single dose of deutetrabenazine on day 1 followed by a 72-h washout. Subjects then received paroxetine on days 4 to 12 to achieve steady-state plasma concentrations of paroxetine by day 11. On day 11, another single dose of deutetrabenazine was administered. Triplicate 12-lead digital electrocardiograms (ECGs) were collected predose and for 10 h following deutetrabenazine dosing on day 1, and for 10 h on day 11, following paroxetine administration on day 10. Blood samples for measurement of plasma concentrations of deutetrabenazine and its metabolites were obtained on days 1 and 11 (predose, 1, 2, 2.5, 3, 3.5, 4, 4.5, 5, 6, 7, 8, 10, 12, and 16 h), days 2 and 12, at 24 and 36 h, days 3 and 13, at 48 and 60 h and days 4 and 14, at 72 h. Paroxetine trough levels were obtained pre-dose on days 9, 10, 11, and 12, and on day 13 at 24 h post the final paroxetine dose on day 12. Blood and urine samples were collected for clinical laboratory testing (hematology, serum chemistries, and urinalysis) at admission and after at least 10 h fasting and at study completion on day 14 or upon early withdrawal.
All participants received the following treatments, deutetrabenazine 22.5-mg oral dose as one 15-mg tablet + one 7.5-mg tablet on days 1 and 11 and one paroxetine 20 mg (Cadila Healthcare Ltd.) oral tablet on days 4 through 12. The deutetrabenazine 22.5-mg dose was administered with 237 mL of water in the morning approximately 30 min after a standardized breakfast meal with moderate fat content (35%). No food was allowed for at least 4 h postdose, and subjects were asked to remain upright for at least 4 h postdose, unless medically necessary.
Paroxetine 20 mg was administered in the morning with 237 mL water for 9 days (days 4 to 12) to ensure steady-state levels. On days 4 to 10 and 12, the paroxetine dose was administered in a fed state 30 min after breakfast. On day 11, as paroxetine can be administered without regard to food, subjects took the paroxetine dose under fasting conditions (at least 1 h prior to breakfast and 1.5 h prior to deutetrabenazine administration) following an overnight fast of at least 10 h. Subjects were asked to remain upright for at least 1 h after the paroxetine dose, unless medically necessary.
Validated liquid chromatography/tandem mass spectrometry methods were applied to assess plasma concentrations of paroxetine, deutetrabenazine, α- and β-HTBZ metabolites, and the O-desmethyl metabolites of α- and β-HTBZ. This was performed on a Sciex API 4000 instrument, equipped with a Turbo Ion Spray ion source operated in the positive ion mode and interfaced to a Shimadzu HPLC system fitted with a Waters XBridge C18 reverse phase column (3.5 µm; 50 × 2.1 mm) for paroxetine, deutetrabenazine, α-HTBZ and β-HTBZ or a Phenomenex Kinetex column (2.6 µm; 100 × 2.1 mm) for the O-desmethyl metabolites. The validated assay ranges were as follows: paroxetine 0.500 to 50.0 ng/mL, deutetrabenazine 0.100 to 10.0 ng/mL, deuterated α- and β-HTBZ 0.500 to 100 ng/mL, and 9-O- and 10-O-desmethyl metabolites of α-HTBZ and β-HTBZ 0.5 to 50.0 ng/mL. The methods were developed and validated by CPR Pharma Services, Pty, Ltd Australia, as described earlier.
Plasma concentrations, below the limit of quantitation (BLQ) of the assay, were designated a value of zero for initial and time points occurring at the end of the profile. For sampling time points between two quantifiable concentrations, plasma concentrations BLQ followed by a measurable concentration were set to the limit of quantitation of the assay.

The mark [3] stands for this setting: Subjects with EM phenotype (n = 15).
The mark [4] stands for this setting: Subjects with IM phenotype (n = 8).
Setting [5] is: population of 15 EM and 8 IM, deutetrabenazine 22.5 mg, steady-state paroxetine 20 mg daily vs alone.

Regarding `COc1cc2c(cc1OC)[C@H]1C[C@H](O)[C@H](CC(C)C)CN1CC2` [β-HTBZ], the “Increase in exposure with paroxetine” value in data set [1] (after tetrabenazine administration) is given as “ninefold”. Moreover, the “Increase of AUC with paroxetine” value in data set [1] (paroxetine administered with tetrabenazine) is recorded as “ninefold”. In data set [2] (All subjects (n = 23)), the “% Ratio of LS means (90% CI) (day 11)/(day 1), AUC0−t” value (from here on “% Ratio of LS means (90% CI) … AUC0−t”) is listed as 484.7 (355.2–661.5) %; the “% Ratio of LS means (90% CI) (day 11)/(day 1), AUC0−∞” value (from here on “% Ratio of LS means (90% CI) … AUC0−∞”) is reported as 520.6 (388.9–697.0) %; the “% Ratio of LS means (90% CI) (day 11)/(day 1), Cmax” value (from here on “% Ratio of LS means (90% CI) … Cmax”) is reported as 154.3 (126.0–189.0) %. In data set [2] (setting [3]), the “% Ratio of LS means (90% CI) … AUC0−t” value was 641.3 (537.3–765.4) %; the “% Ratio of LS means (90% CI) … AUC0−∞” value is listed as 649.9 (549.6–768.5) %; the “% Ratio of LS means (90% CI) … Cmax” value was 216.4 (185.0–253.2) %. In data set [2] (setting [4]), the “% Ratio of LS means (90% CI) … AUC0−t” value is 744.6 (605.3–915.8) %; the “% Ratio of LS means (90% CI) … AUC0−∞” value is recorded as 731.5 (595.0–899.3) %; the “% Ratio of LS means (90% CI) … Cmax” value was 259.2 (216.7–310.1) %. In addition, in data set [2] (deutetrabenazine 22.5 mg, steady-state paroxetine vs alone), the “Increase of half-life (t1/2) in presence of paroxetine” value is given as 2.7 fold. For the same compound, the Cmax in data set [2] (human, in vivo) is listed as 20.4 (33) ng/mL. Besides, in data set [2] (human, in vivo, im), the “AUC0–∞” value was 333 (75) ng × h/mL, the Cmax is listed as 32.6 (22) ng/mL, the Tmax is 4.0 (2.0–8.0) h and the t1/2 is 7.9 (50) h. Also, the Cmax in data set [2] (human, in vivo, po, 22.5 mg) is listed as 24.6 (38) ng/mL. In data set [2] (setting [5]), the “Increase of AUC0–∞ in presence of paroxetine” value is 5.6 fold and the “Increase of Cmax in presence of paroxetine” value worked out at 2.1 fold.

These data come from publication PMC8724172, “The effect of potent CYP2D6 inhibition on the pharmacokinetics and safety of deutetrabenazine in healthy volunteers” (European Journal of Clinical Pharmacology, 2021).
